In patent US20230096103A1, “BERBERINE COMPOUNDS, BERBERINE COMPOSITIONS, AND METHODS FOR ADMINISTRATION THEREOF” (Dignity Health, priority 2020, published 2023):

Key:
human α4β2-nAChR [1] = target: T1, human α4β2-nAChR (Homo sapiens, UniProt P17787+P43681); assay: Whole-cell patch-clamp of human α4β2-nAChR-mediated currents in transfected SH-EP1 cells; assay type: cell-based; settings: for ACh-induced currents, peak current component / ACh-induced currents, steady-state component: 30 μM co-applied with 1 mM ACh; for 1 mM ACh-induced whole-cell currents: 1 min pretreatment
T1 construct: expressed in transfected cells; host or cells: human SH-EP1 cell line
Protocol: The effects of THPBs on α4β2-nAChR function were evaluated in vitro. Specifically, whole-cell patch-clamp recording technique was employed in α4β2-nAChRs transfected with a human SH-EP1 cell-line. FIG. 1A provides graphs illustrating the effects of a 1 min pre-treatment of 30 μM /-THP, d/-THB or /-SPD on 1 mM ACh-induced current in SH-EP1 cell line.
Thus, when THPBs are co-applied with an agonist, it affects receptor function after agonist opens channels.
(§1) The effects of THB-induced inhibition on the α4β2-nAChR function were evaluating using human α4β2-nAChRs (transfected to SH-EP1 cells) and rat α4β2-nAChRs natively expressed in VTA DA neurons. The 30 μM THB (without pretreatment) inhibited both types (human and rat) of α4β2-nAChR function, and compared to peak current, the steady-state current portion was more sensitive to THB (FIGS. 3A-3C).
The effect of different concentrations of THB on 1 mM ACh-induced whole-cell currents were further examined in human α4β2-nAChRs in SH-EP1 cells. […] The steady-state current was more sensitive to THB than the peak current.
FIG. 9A provides a graph of traces of co-application of THB6 on ACh-induced current. FIG. 9B provides a graph of traces of the effect of 1 min pretreatment of THB6 on ACh-induced current. […] Each bar of the bar graph presented in FIG. 9C represents the mean from 4 cells and vertical bars indicate +Se. A ^“*” was given to indicate p<0.05, while a ^“***” was given to indicate p<0.001 in FIG. 9C. Data was analyzed with One-Way ANOVA.
A dosage containing 100 μM THB6 compound was evaluated on human and mouse α4β2-nAChR-mediated currents. FIG. 10A provides a graph of traces of ACh-induced whole-cell currents in human α4β2-nAChRs transfected in human SH-EP1 cells. FIG. 10B provides a graph of traces of ACh-induced whole-cell currents in mouse α4β2-nAChRs transfected in VTA dopamine neurons. […] Each bar in the bar graph of FIG. 10C represents the mean from 4 cells and vertical bars indicate +SE. A ^“*” was given to indicate p<0.05. A ^“***” was given to indicate p<0.001 in FIG. 9C. Data was analyzed with One-Way ANOVA.

VTA DA neurons [2] = assay: Miniature EPSCs in VTA DA neuron, patch-clamp whole-cell recording in VTA slice; assay type: cell-based
Protocol: Thus, the effect of /-THP on this nicotine-induced EPSC enhancement was studied. […] Co-application of 10 μM /-THP abolished nicotine-induced enhancement of mEPSCs (see, FIGS. 5A and 5C).

male C57BL/6 mice = assay: Nicotine-induced conditioned place preference (CPP); assay type: in vivo, mouse
Protocol: A conventional biased CPP was performed on male C57BL/6 mice. Mice were put into two-compartment CPP apparatus (Med Associate Inc. VT) for accommodation once (20 min) a day for 3 days and for monitoring the preference to any specific side of compartment. Mice were divided into 3 groups (5 mice per group) and received 2 training sessions per day for 4 days.
When the mouse received a saline injection, it was placed into the opposite side for 20 min. […] Alternatively, the mice of the second group received saline injection and placed into the opposite side. The third group of mice (the I-THP only group) received /-THP i.p. injection (10 mg/Kg) and were placed into the least preferred side for 20 min. Alternatively, the mice received a saline injection and were placed into the opposite side.
On the 5th day, mice were tested for place preference by allowing free access to both conditioning compartments for 20 minutes. The foregoing 4-day training session was repeated on the 6th day. Mice of group 1 received their treatments without change. […] Alternatively, the mice of group 2 received a saline injection and then received a saline injection 5 min later. After the saline injection, the mice of group 2 were placed into the opposite chamber for 4 days. On the 10th day, the mice were tested for place preference for 20 min (See, FIG. 8).

human α4β2-nAChR [3] = target: T1, human α4β2-nAChR; assay: 3H-epibatidine (H-EBDN) binding and binding competition on heterologously expressed α4β2-nAChR; settings: FIG. 2A
VTA DA neurons [4] = assay: In vivo VTA DA neuronal firing in anesthetized rats; parameters: species or system rat
Protocol: It was tested whether systemic injection of THB affected VTA DA neuron firing. As shown in FIGS. 6A-6C, injection of THB (1 mg/kg, i.v.) increased VTA DA neuron firing rate, bursting fraction (FIG. 6A), and slow oscillations (FIGS. 6B-6D). […] THB appears to eliminate nicotinic effect via its blockade of nAChRs. Therefore, the actions of THB are consistent with the double target hypothesis that THB blocks nAChRs (especially α4β2-nAChRs) and enhances DA release from VTA to DA neuronal targets.

human α4β2-nAChR [5] = target: T1, human α4β2-nAChR; assay: 86Rb+ efflux assay, carbachol-induced response, heterologously expressed α4β2-nAChR; assay type: cell-based
rat α4β2-nAChRs = target: T2, rat α4β2-nAChRs (Rattus norvegicus, UniProt P09483+P12390); assay: Whole-cell currents of rat α4β2-nAChRs natively expressed in VTA DA neurons; assay type: cell-based; settings: 30 μM, without pretreatment
T2 construct: rat α4β2-nAChRs natively expressed in VTA DA neurons; endogenous in cells; host or cells: rat VTA dopamine neurons
Protocol: as §1

VTA DA neurons [6] = assay: Extracellular single unit recording of VTA DA neuron firing in anesthetized mice; assay type: in vivo, mouse
Protocol: The effect of systemic injection of THB6 on mouse VTA DA neuron firing was evaluated by applying 10 mg/kg via an IV to anesthetized mice and extracellular single unit recordings were performed. FIG. 12A provides an image of the VTA slice, showing the recording electrode track and recording site after the experiment. The location of the recording electrode track is depicted in FIG. 12B.

VTA DA neurons [7] = assay: Action potential firing in mouse VTA slices, cell-attached patch recording; assay type: cell-based
Protocol: Based on the evaluation of a dosage containing THB6 compounds on VTA slices, it was determined that THB6 prevents nicotine-induced firing rate increase in VTA DA neurons. […] FIG. 11B is a bar graph showing the statistical result of the normalized firing rate of THB6 compounds.

mice = assay: Mouse locomotor activity after systemic injection; assay type: in vivo
Text: Systemic injection of dosages containing THB6 to mice and the mice's locomotive activity was studied.

mouse α4β2-nAChRs = target: T3, mouse α4β2-nAChRs (Mus musculus, UniProt O70174+Q9ERK7); assay: ACh-induced whole-cell currents of mouse α4β2-nAChRs in VTA dopamine neurons; assay type: cell-based; settings: 100 μM
T3 construct: expressed in transfected cells; host or cells: VTA dopamine neurons
Protocol: A dosage containing 100 μM THB6 compound was evaluated on human and mouse α4β2-nAChR-mediated currents. FIG. 10A provides a graph of traces of ACh-induced whole-cell currents in human α4β2-nAChRs transfected in human SH-EP1 cells. FIG. 10B provides a graph of traces of ACh-induced whole-cell currents in mouse α4β2-nAChRs transfected in VTA dopamine neurons. […] FIGS. 10C and 10D provide bar graphs showing the statistic result that THB6 inhibits both peak and steady-state compounds of ACh-induced currents. Each bar in the bar graph of FIG. 10C represents the mean from 4 cells and vertical bars indicate +SE. A ^“*” was given to indicate p<0.05. A ^“***” was given to indicate p<0.001 in FIG. 9C. Data was analyzed with One-Way ANOVA.

[8] = 1 mg/kg, i.v., anesthetized rats

With `COc1cc2c(cc1OC)[C@@H]1Cc3ccc(OC)c(OC)c3CN1CC2` [/-THP, /-tetrahydropalmatine] the “ACh-induced currents, peak current component” value (human α4β2-nAChR [1]; SH-EP1 cells) was “only mildly reduced”, the “ACh-induced currents, steady-state component” value (human α4β2-nAChR [1]; SH-EP1 cells) was “suppressed” and the “1 mM ACh-induced whole-cell currents” value (human α4β2-nAChR [1]; 30 μM, SH-EP1 cells) was “dramatically eliminated”. The IC50 (human α4β2-nAChR [1]; co-application with 1 mM ACh, SH-EP1 cells, n=8, read-out: IC50 value for current net charge) was 5.2 µM, the Hill coefficient (human α4β2-nAChR [1]; co-application with 1 mM ACh, current net charge) was 0.4 and the “nicotine-induced enhancement of mEPSCs” value (VTA DA neurons [2]; 10 μM co-applied with 1 μM nicotine) was “abolished”. The “nicotine rewarding effects after CPP has been established” value (male C57BL/6 mice; 10 mg/Kg i.p. 5 min before nicotine 1.5 mg/Kg) was “counteracts”.
In the case of `COc1ccc2c(c1OC)CN1CCc3cc4c(cc3C1C2)OCO4` (centres unmarked) [THB, tetrahydroberberine], the “ACh-induced currents, peak current component” value (human α4β2-nAChR [1]; SH-EP1 cells) is reported as “only mildly reduced”, the “ACh-induced currents, steady-state component” value (human α4β2-nAChR [1]; SH-EP1 cells) is reported as “suppressed” and the “1 mM ACh-induced whole-cell currents” value (human α4β2-nAChR [1]; 30 μM, SH-EP1 cells) is reported as “dramatically eliminated”. For the same molecule, the “human α4β2-nAChR function (ACh-induced currents)” value (human α4β2-nAChR [1]; 30 μM, without pretreatment) was “inhibited”, the IC50 (human α4β2-nAChR [1]; IC50 value of Ip (peak current), 1 mM ACh-induced whole-cell currents, SH-EP1 cells) was 2.2 µM and the IC50 (human α4β2-nAChR [1]; IC50 value of Is (steady-state current), 1 mM ACh-induced whole-cell currents, SH-EP1 cells) was 37 µM. For the same molecule, the “affinity in H-EBDN binding competition” value (human α4β2-nAChR [3]) was “high affinity”, the “VTA DA neuron bursting fraction” value (VTA DA neurons [4]; [8]) was “increased” and the “VTA DA neuron firing rate” value (VTA DA neurons [4]; [8]) was “increased”. The “VTA DA neuron slow oscillations” value (VTA DA neurons [4]; [8]) was “increased”, the “effect of nicotine on VTA DA firing rate and bursting fraction after THB” value (VTA DA neurons [4]; nicotine 0.5 mg/kg i.v. 5 min after THB injection) was “failed to increase” and the IC50 (human α4β2-nAChR [5]) was 7 µM. The “rat α4β2-nAChR function (ACh-induced currents)” value (rat α4β2-nAChRs) was “inhibited”.
With `CN1CCCC1c1cccnc1` (centres unmarked) [nicotine] the mEPSC amplitude (VTA DA neurons [2]; FIG. 5D) was “did not affect”, the mEPSC frequency (VTA DA neurons [2]; bath application of 1 μM) was “significantly increased” and the conditioned place preference (male C57BL/6 mice; 1.5 mg/Kg) was “induced significant CPP”. The “neuronal firing rate at 2 minutes after injection” value (VTA DA neurons [6]; systemic injection, back to normal level after 8 minutes) was “increases”.
With /-stepholidine [/-SPD] the “ACh-induced currents, peak current component” value (human α4β2-nAChR [1]; SH-EP1 cells) was “only mildly reduced”, the “ACh-induced currents, steady-state component” value (human α4β2-nAChR [1]; SH-EP1 cells) was “suppressed” and the “1 mM ACh-induced whole-cell currents” value (human α4β2-nAChR [1]; 30 μM, SH-EP1 cells) was “dramatically eliminated”. The “affinity in H-EBDN binding competition” value (human α4β2-nAChR [3]) was “lower affinity” and the IC50 (human α4β2-nAChR [5]; FIG. 2B, read-out: IC50 value, carbachol-induced 86Rb+ efflux response) was 30 µM.
With `COc1ccc2c(c1OC)CN1CCc3cc4oc(=O)oc4cc3C1C2` (centres unmarked) [THB6] the “peak component of ACh-induced currents” value (human α4β2-nAChR [1]; 30 μM, with and without 1 min pretreatment, FIG. 9C) was “inhibiting”, the “peak and steady-state components of ACh-induced currents, human α4β2-nAChRs” value (human α4β2-nAChR [1]; 100 μM, SH-EP1 cells) was “inhibits” and the “DA neuronal firing, compound alone” value (VTA DA neurons [7]) was “did not affect”. The nicotine-induced firing increase (VTA DA neurons [7]) was “prevented”, the “nicotine-induced increase of locomotor activity” value (mice; pretreatment) was “prevented” and the “locomotor activity, compound alone” value (mice; systemic injection) was “did not alter”. The “peak and steady-state components of ACh-induced currents, mouse α4β2-nAChRs” value (mouse α4β2-nAChRs) was “inhibits”, the “neuronal firing rate, compound alone” value (VTA DA neurons [6]; 10 mg/kg IV, anesthetized mice) was “did not affect” and the “nicotine-induced increase of firing rate” value (VTA DA neurons [6]; 10 mg/kg IV, anesthetized mice) was “prevented”.
